The source made the active and inactive calls. No cut-off for these calls is given here. Square brackets hold non-standard residues; d marks the D form. Peptide text beside a SMILES is read from it.
Key:
[1] = target: T1, Endothelin-1 receptor (Rattus norvegicus) (UniProt P26684); test: Antagonist activity at ETA receptor in Sprague-Dawley Rattus norvegicus (rat) thoracic aortic ring assessed as inhibition of ET1-induced thoracic aortic ring contraction at 10 uM after 30 min relative to control
T1 sequence (whole entry): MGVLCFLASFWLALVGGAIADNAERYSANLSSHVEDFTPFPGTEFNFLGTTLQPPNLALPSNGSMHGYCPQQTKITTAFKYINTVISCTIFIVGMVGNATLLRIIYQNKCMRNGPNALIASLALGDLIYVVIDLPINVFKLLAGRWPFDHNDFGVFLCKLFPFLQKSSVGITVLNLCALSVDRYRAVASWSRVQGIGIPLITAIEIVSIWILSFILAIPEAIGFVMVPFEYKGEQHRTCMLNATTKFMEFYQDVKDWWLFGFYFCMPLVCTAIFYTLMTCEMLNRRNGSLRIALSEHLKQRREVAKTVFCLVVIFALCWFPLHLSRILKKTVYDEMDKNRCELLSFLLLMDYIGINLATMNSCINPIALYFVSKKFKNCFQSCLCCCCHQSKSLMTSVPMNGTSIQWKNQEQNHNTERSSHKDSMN

Endothelin-1 receptor [2] = target: T2, Endothelin-1 receptor (Homo sapiens, UniProt P25101); test: Antagonist activity at ETA receptor (unknown origin)
T2 sequence (P25101 whole entry): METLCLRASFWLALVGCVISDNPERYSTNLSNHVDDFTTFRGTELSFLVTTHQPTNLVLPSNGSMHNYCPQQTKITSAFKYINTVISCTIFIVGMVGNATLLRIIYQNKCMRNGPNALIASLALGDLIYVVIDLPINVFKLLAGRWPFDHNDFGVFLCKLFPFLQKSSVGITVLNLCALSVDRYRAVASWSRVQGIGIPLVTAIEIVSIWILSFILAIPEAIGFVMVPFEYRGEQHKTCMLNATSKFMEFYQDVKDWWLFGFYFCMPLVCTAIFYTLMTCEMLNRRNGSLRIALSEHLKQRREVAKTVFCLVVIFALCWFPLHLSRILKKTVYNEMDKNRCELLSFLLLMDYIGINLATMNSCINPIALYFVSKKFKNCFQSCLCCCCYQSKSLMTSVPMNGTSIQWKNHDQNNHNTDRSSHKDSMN

[3] = target: T3, Endothelin receptor type B (Rattus norvegicus, UniProt P21451); test: Displacement of [125I]ET-1 from ETB receptor in Sprague-Dawley Rattus norvegicus (rat) myocardium after 1 hr
T3 sequence (P21451 whole entry): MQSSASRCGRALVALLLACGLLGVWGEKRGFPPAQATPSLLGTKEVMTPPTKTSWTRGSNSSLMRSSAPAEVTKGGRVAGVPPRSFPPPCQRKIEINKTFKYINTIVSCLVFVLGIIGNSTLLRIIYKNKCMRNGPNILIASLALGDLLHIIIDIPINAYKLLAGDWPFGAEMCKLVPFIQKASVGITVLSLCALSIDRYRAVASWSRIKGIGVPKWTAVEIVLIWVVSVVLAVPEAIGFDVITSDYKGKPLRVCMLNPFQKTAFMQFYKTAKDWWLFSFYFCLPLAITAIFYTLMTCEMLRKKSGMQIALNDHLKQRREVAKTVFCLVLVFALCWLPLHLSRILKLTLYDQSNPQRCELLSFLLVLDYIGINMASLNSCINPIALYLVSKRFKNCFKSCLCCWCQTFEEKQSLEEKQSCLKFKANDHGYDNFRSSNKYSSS

Endothelin-1 receptor [4] = target: T4, Endothelin-1 receptor (Rattus norvegicus, UniProt P26684); test: Displacement of [125I]ET-1 from ETA receptor in Sprague-Dawley Rattus norvegicus (rat) myocardium after 1 hr
T4 sequence (P26684 whole entry): T1 sequence (whole entry)

Rattus norvegicus [5] = species: Rattus norvegicus; test: Selectivity Rattus norvegicus (rat)io of IC50 for ETB receptor in Sprague-Dawley Rattus norvegicus (rat) myocardium to IC50 for ETA receptor in Sprague-Dawley Rattus norvegicus (rat) myocardium; assay type: tissue-based
Endothelin-1 receptor [6] = target: T2, Endothelin-1 receptor; test: Antagonist activity at Homo sapiens (human) ETA receptor
Rattus norvegicus [7] = test: Antihypertensive activity in po dosed hypoxic pulmonary arterial Sprague-Dawley Rattus norvegicus (rat) model assessed as decrease in hypoxia-induced central vein pressure administered for 28 days measured on day 29 by hemodynamic analyzer relative to untreated control; assay type: functional, organism-based; details: Artery
Rattus norvegicus [8] = test: Antihypertensive activity in po dosed hypoxic pulmonary arterial Sprague-Dawley Rattus norvegicus (rat) model assessed as decrease in hypoxia-induced right ventricular systolic pressure administered for 28 days measured on day 29 by hemodynamic analyzer relative to untreated control; assay type: functional, organism-based; details: Heart right ventricle
Rattus norvegicus [9] = test: Antihypertensive activity in hypoxic pulmonary arterial Sprague-Dawley Rattus norvegicus (rat) model assessed as decrease in hypoxia-induced central vein pressure at 10 mg/kg, po administered for 28 days measured on day 29 by hemodynamic analyzer relative to untreated control; assay type: functional, organism-based; parameters: dose 10 mg/kg; details: Artery
Rattus norvegicus [10] = test: Antihypertensive activity in hypoxic pulmonary arterial Sprague-Dawley Rattus norvegicus (rat) model assessed as decrease in hypoxia-induced right ventricular systolic pressure at 10 mg/kg, po administered for 28 days measured on day 29 by hemodynamic analyzer relative to untreated control; assay type: functional, organism-based; parameters: dose 10 mg/kg; details: Heart right ventricle

Which inhibition [1] does the source give for `CCOc1cccc2oc(C(=O)O)c(C)c12` here?
The inhibition was 61%.

How did the inhibition [1] turn out when `Cc1c(C(=O)O)oc2cccc(OCc3ccccc3)c12` was run?
Its inhibition is 40.7%.

What about the IC50 (Endothelin-1 receptor [2]) of the same compound?
Its IC50 is 3800 nM.

With `Cc1c(C(=O)O)oc2cccc(OC/C=C/c3ccccc3)c12` as the compound, how does the inhibition [1] read?
Its inhibition is 50%.

How did the IC50 [3] turn out when `Cc1c(C(=O)O)oc2cccc(OCc3ccc4nsnc4c3)c12` was run?
Its IC50 is 930 nM.

And the IC50 (Endothelin-1 receptor [4])?
Its IC50 is 23 nM.

And the inhibition [1]?
Its inhibition is 82.2%.

And the Ratio IC50 (Rattus norvegicus [5])?
Its Ratio IC50 is 40.

How did the IC50 (Endothelin-1 receptor [4]) turn out when `CC(C)C[C@@H]1NC(=O)[C@@H](C(C)C)NC(=O)[C@@H]2CCCN2C(=O)[C@@H](CC(=O)O)NC(=O)[C@@H](Cc2c[nH]c3ccccc23)NC1=O` [BQ-123] (cyclo(L[dW][dD]P[dV])) was run?
Its IC50 is 28 nM.

And the IC50 (Endothelin-1 receptor [6])?
The IC50 was 37 nM.

And the inhibition [1]?
Its inhibition is 68.1%.

Which inhibition [1] does the source give for `Cc1c(C(=O)O)oc2cccc(OC(CCC(=O)O)c3ccccc3)c12` (stereo not drawn) here?
The inhibition was 44%.

Which inhibition [1] does the source give for `CCCCCOc1cccc2oc(C(=O)O)c(C)c12` here?
The inhibition was 46.8%.

Which results are given for `Cc1c(C(=O)O)oc2cccc(OCc3ccc4nonc4c3)c12`?
IC50 [3]: 1070 nM; IC50 (Endothelin-1 receptor [4]): 39 nM; inhibition [1]: 70%; Ratio IC50 (Rattus norvegicus [5]): 27

For `Cc1c(C(=O)O)oc2cccc(OCCN3CCCC3)c12`, which inhibition [1] is on record?
The inhibition was 34.1%.

What about the Activity (Rattus norvegicus [7]) of the same compound?
Its Activity is “Dose-dependent effect”.

What about the Activity (Rattus norvegicus [8]) of the same compound?
The Activity was “Dose-dependent effect”.

How did the inhibition [1] turn out when `Cc1c(C(=O)O)oc2cccc(OCCOc3cccc(Cl)c3)c12` was run?
The inhibition was 21.7%.

How did the inhibition [1] turn out when `CCCOc1cccc2oc(C(=O)O)c(C)c12` was run?
Its inhibition is 69.7%.

Which inhibition [1] does the source give for `Cc1c(C(=O)O)oc2cccc(OC(C(=O)O)c3ccccc3)c12` (stereo not drawn) here?
The inhibition was 29%.

For `COc1cccc2oc(C(=O)O)c(C)c12`, which IC50 (Endothelin-1 receptor [2]) is on record?
Its IC50 is 11000 nM.

For `Cc1ccc(OCCOc2cccc3oc(C(=O)O)c(C)c23)cc1`, which inhibition [1] is on record?
The inhibition was 40.8%.

With `COC(=O)C1=C(C)NC(C)=C(C(=O)OC)C1c1ccccc1[N+](=O)[O-]` as the compound, how does the Activity (Rattus norvegicus [9]) read?
Its Activity is “Active”.

And the Activity (Rattus norvegicus [10])?
The Activity was “Active”.

With `CCCCOc1cccc2oc(C(=O)O)c(C)c12` as the compound, how does the inhibition [1] read?
The inhibition was 56.7%.

From ChEMBL document CHEMBL3046666, “Design, synthesis, and biological evaluation of benzofuran derivatives as ET receptor antagonists” (Med Chem Res, 2013)
